Patent publication US6326386A, “Benzamide derivatives as thrombin inhibitors” (Glaxo Group Limited, priority 1995, dated 2001)

target: T1, human α-thrombin (Homo sapiens, UniProt P00734); assay: Inhibition of human α-thrombin in a chromogenic assay (N-p-tosyl-gly-pro-lys p-nitroanilide substrate); type: biochemical; conditions: human α-thrombin 1 nM, substrate 100 μM, pH 7.4, room temperature, 405 nm; preincubation (zero or 15 mins) not given
T1 construct: human α-thrombin
Experimental: All dilutions were made in a buffer consisting of: 50 mM HEPES, 150 mM NaCl, 5 mM CaCl2, 0.1% PEG and at pH 7.4. Briefly, the substrate (final conc. of 100 μM) was added to thrombin (final conc. of 1 nM) and the reaction monitored for 10 mins at 405 nm using a Biotek EL340 plate reader; the assay was performed at room temperature. To obtain IC50 s the data were analyzed using Kineticalc® with a 4-parameter curve fitting procedure to obtain the IC50 value.
The compounds of the present invention are thrombin inhibitors. The results below illustrate the thrombin activity of a range of compounds of formula (I) using the previously described biological method: […]

IC50 [nM]	Compound
5	C=CCN(C(=O)c1cc(Cl)cc(OCCNc2ccncc2)c1)C1CCCC1 [Example 6, N-Allyl-3-chloro-N-cyclopentyl-5-[2-(pyridin-4-ylamino)-ethoxy]-benzamide]
7	O=C(c1cc(Cl)cc(OCCNc2ccncc2)c1)N(CCCO)C1CCCC1 [Example 9, 3-Chloro-N-cyclopentyl-N-(3-hydroxy-propyl)-5-[2-(pyridin-4-ylamino)-ethoxy]-benzamide]
15	O=C(c1cc(Cl)cc(OCCNc2ccncc2)c1)N(CCCN1CCOCC1)C1CCCC1 [Example 13, 3-Chloro-N-cyclopentyl-N-(3-morpholin-4-yl-propyl)-5-[2-(pyridin-4-ylamino)-ethoxy]-benzamide]
14	CCOC(=O)CCCN(C(=O)c1cc(Cl)cc(OCCNc2ccncc2)c1)C1CCCC1 [Example 17, 4-({3-Chloro-5-[2-(pyridin-4-ylamino)-ethoxy]-benzoyl}-cyclopentyl-amino)-butyric acid ethyl ester]
9	O=C(CCCN(C(=O)c1cc(Cl)cc(OCCNc2ccncc2)c1)C1CCCC1)N1CCCC1 [Example 20, 3-Chloro-N-cyclopentyl-N-(4-oxo-4-pyrrolidin-1-yl-butyl)-5-[2-(pyridin-4-ylamino)-ethoxy]-benzamide]
50	NC(=O)CCN(CC1CC1)C(=O)c1cc(Cl)cc(OCCNc2ccncc2)c1 [Example 55, N-(2-Carbamoyl-ethyl)-3-chloro-N-cyclopropylmethyl-5-[2-(pyridin-4-ylamino)-ethoxy]-benzamide]
34	O=C(c1cc(Cl)cc(OCCNc2ccncc2)c1)N(CCn1cncn1)C1CCCC1 [Example 91, 3-Chloro-N-cyclopentyl-5-[2-(pyridin-4-ylamino)-ethoxy]-N-(2-[1,2,4]triazol-1-yl-ethyl)-benzamide]
15	O=C(c1cc(Cl)cc(OCCNc2ccncc2)c1)N(CCCCn1cncn1)C1CCCC1 [Example 92, 3-Chloro-N-cyclopentyl-5-[2-(pyridin-4-ylamino)-ethoxy]-N-(4-[1,2,4]triazol-1-yl-butyl)-benzamide]
28	O=C(O)CCCCCN(CC1CCCCC1)C(=O)c1cc(Cl)cc(OCCNc2ccncc2)c1 [Example 124, 6-({3-Chloro-5-[2-(pyridin-4-ylamino)-ethoxy]-benzoyl}-cyclohexylmethyl-amino)-hexanoic acid]
41	O=C(O)CCCN(C(=O)c1cc(Cl)cc(OCCNc2ccncc2)c1)C1CCC1 [Example 128, 4-({3-Chloro-5-[2-(pyridin-4-ylamino)-ethoxy]-benzol}-cyclobutyl-amino)-butyric acid]

More lines, now with the values behind:

Compound	IC50 [nM]
Cc1cc(OCCNc2ccncc2)cc(C(=O)N(C)C2CCCCC2)c1 [Example 1, N-Cyclohexyl-3, N-dimethyl-5-[2-(pyridin-4-ylamino)-ethoxy]-benzamide]	8
CCCN(C(=O)c1cc(Cl)cc(OCCNc2ccncc2)c1)c1cc(F)cc(F)c1 [Example 29, 3-Chloro-N-(3,5-difluoro-phenyl)-N-propyl-5-[2-(pyridin-4-ylamino)-ethoxy]-benzamide]	62
O=C(CCCN(C(=O)c1cc(Cl)cc(OCCNc2ccncc2)c1)c1ccccc1F)N1CCCC1 [Example 37, 3-Chloro-N-(2-fluoro-phenyl)-N-(4-oxo-4-pyrrolidin-1-yl-butyl)-5-[2-(pyridin-4-ylamino)-ethoxy]-benzamide]	17
O=C(c1cc(Cl)cc(OCCNc2ccncc2)c1)N(CCCc1nnn[nH]1)c1ccccc1F [Example 40, 3-Chloro-N-(2-fluoro-phenyl)-5-[2-(pyridin-4-ylamino)-ethoxy]-N-[3-(1H-tetrazol-5-yl)-propyl]-benzamide]	9
O=C(c1cc(Cl)cc(OCCNc2ccncc2)c1)N(CCOCC(O)CO)c1ccccc1 (stereo not drawn) [Example 41, 3-Chloro-N-[2-(2,3-dihydroxy-propoxy)-ethyl]-N-phenyl-5-[2-(pyridin-4-ylamino)-ethoxy]-benzamide]	28
CC(C)(C)NC(=O)CCN(C(=O)c1cc(Cl)cc(OCCNc2ccncc2)c1)c1ccccc1 [Example 47, N-(2-tert-Butylcarbamoyl-ethyl)-3-chloro-N-phenyl-5-[2-(pyridin-4-ylamino)ethoxy]-benzamide]	61
O=C(CCN(C(=O)c1cc(Cl)cc(OCCNc2ccncc2)c1)c1ccccc1)N1CCSCC1 [Example 49, 3-Chloro-N-(3-oxo-3-thiomorpholin-4-yl-propyl)-N-phenyl-5-[2-(pyridin-4-ylamino)-ethoxy]-benzamide]	38
CC(C)N(CCC(N)=O)C(=O)c1cc(Cl)cc(OCCNc2ccncc2)c1 [Example 58, N-(2-Carbamoyl-ethyl)-3-chloro-N-isopropyl-5-[2-(pyridin-4-ylamino)-ethoxy]-benzamide]	107
CC(C)N(CCCNS(C)(=O)=O)C(=O)c1cc(Cl)cc(OCCNc2ccncc2)c1 [Example 72, 3-Chloro-N-isopropyl-N-(3-methanesulfonylamino-propyl)-5-[2-(pyridin-4-ylamino)-ethoxy]-benzamide]	63
O=C(c1cc(Cl)cc(OCCNc2ccncc2)c1)N(CCCn1cncn1)c1ccc(F)cc1 [Example 90, 3-Chloro-N-(4-fluoro-phenyl)-5-[2-(pyridin-4-ylamino)-ethoxy]-N-(3-[1,2,4]triazol-1-yl-propyl)-benzamide]	22
COCCN(C(=O)c1cc(Cl)cc(OCCNc2ccncc2)c1)C(C)C [Example 99, 3-Chloro-N-isopropyl-N-(2-methoxy-ethyl)-5-[2-(pyridin-4-ylamino)-ethoxy]-benzamide]	40
CC(C)N(CCc1noc(O)n1)C(=O)c1cc(Cl)cc(OCCNc2ccncc2)c1 [Example 109]	140
CC(C)CN(Cc1ccc(C(=O)O)cc1)C(=O)c1cc(Cl)cc(OCCNc2ccncc2)c1 [Example 118, 4-[({3-Chloro-5-[2-(pyridin-4-ylamino)-ethoxy]-benzoyl}-isobutyl-amino)-methyl]-benzoic acid]	10
NC(=O)CCCCCN(Cc1ccco1)C(=O)c1cc(Cl)cc(OCCNc2ccncc2)c1 [Example 138, N-(5-Carbamoyl-pentyl)-3-chloro-N-furan-2-ylmethyl-5-[2-(pyridin-4-ylamino)-ethoxy]-benzamide]	91
